Measured values taken from patent US9302999B2, “Substituted triazoles as herbicides” (E. I. DU PONT DE NEMOURS AND COMPANY, priority 2012, dated 2016).

How the values were obtained:
Type in all cases: in vivo
[1] = tested on: pigweed (Amaranthus retroflexus); test: Test C pre-/postemergence: pigweed
Summary of the method: (§1)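 Preemergence on seeds in loam/sand, postemergence on 2–18 cm (1–4-leaf) plants in peat-based medium; compounds in non-phytotoxic solvent with surfactant. After 13–15 days in greenhouse, visual rating versus controls, 0 (no effect) to 100 (complete control).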

[2] = tested on: foxtail, giant (giant foxtail, Setaria faberii); test: Test A pre-/postemergence: foxtail, giant; conditions: for Foxtail, Giant plant response rating: Postemergence; for Plant response rating, Foxtail, Giant: Preemergence
Summary of the method: (§2)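 Seeds were sown in loam/sand blend and sprayed preemergence (directed soil spray) and, simultaneously, postemergence at 2–10 cm, one- to two-leaf stage, using compounds in non-phytotoxic solvent with surfactant. After ~10 days in greenhouse, injury was rated visually versus untreated controls, 0 (no effect) to 100 (complete control).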

[3] = tested on: velvetleaf (Abutilon theophrasti); test: Test A pre-/postemergence: velvetleaf; conditions: for Velvetleaf plant response rating: visual rating on 0 to 100 scale (0 no effect, 100 complete control), approximately ten days
Summary of the method: as §2

[4] = tested on: blackgrass (Alopecurus myosuroides); test: Test C pre-/postemergence: blackgrass
Summary of the method: as §1

[5] = tested on: large crabgrass (Digitaria sanguinalis); test: Test C pre-/postemergence: large crabgrass
Summary of the method: as §1

[6] = tested on: lambsquarters (Chenopodium album); test: Test C pre-/postemergence: lambsquarters
Summary of the method: as §1

[7] = tested on: barnyardgrass (Echinochloa crus-galli); test: Test A pre-/postemergence: barnyardgrass; conditions: for Barnyardgrass plant response rating: Postemergence; for Plant response rating, Barnyardgrass: Preemergence
Summary of the method: as §2

[8] = tested on: wheat (Triticum aestivum); test: Test A pre-/postemergence: wheat; conditions: for Wheat plant response rating: visual rating on 0 to 100 scale (0 no effect, 100 complete control), approximately ten days
Summary of the method: as §2

[9] = tested on: ryegrass, Italian (Italian ryegrass, Lolium multiflorum); test: Test C pre-/postemergence: ryegrass, Italian
Summary of the method: as §1

wild oat (Avena fatua) = test: Test C pre-/postemergence: wild oat
Summary of the method: as §1

kochia (Kochia scoparia) = test: Test C pre-/postemergence: kochia
Summary of the method: as §1

[10] = tested on: morningglory (Ipomoea spp.); test: Test A pre-/postemergence: morningglory; conditions: for Morningglory plant response rating: visual rating on 0 to 100 scale (0 no effect, 100 complete control), approximately ten days
Summary of the method: as §2

[11] = Postemergence, 31 g ai/ha, scale 0 to 100 (0 no effect, 100 complete control)
[12] = Postemergence, 62 g ai/ha, scale 0 to 100 (0 no effect, 100 complete control)
[13] = Postemergence, 125 g ai/ha, scale 0 to 100, 0 no effect, 100 complete control
[14] = Postemergence, 250 g ai/ha, scale 0 to 100
[15] = Preemergence, 31 g ai/ha, scale of 0 to 100, 0 is no effect, 100 is complete control
[16] = Preemergence, 62 g ai/ha, scale of 0 to 100, 0 is no effect, 100 is complete control
[17] = Preemergence, 125 g ai/ha, scale 0 to 100, 0 no effect, 100 complete control
[18] = Preemergence, 250 g ai/ha, scale 0 to 100, 0 no effect, 100 complete control
[19] = 125 g ai/ha, 0 to 100 scale, 0 is no effect, 100 is complete control
[20] = 500 g ai/ha, visual rating on 0 to 100 scale (0 no effect, 100 complete control), approximately ten days
[21] = 125 g ai/ha, 0 to 100 scale where 0 is no effect and 100 is complete control
[22] = 500 g ai/ha, 0 to 100 scale (0 no effect, 100 complete control)
[23] = Postemergence, 125 g ai/ha, 0 to 100 scale, 0 is no effect, 100 is complete control
[24] = Preemergence, 125 g ai/ha, 0 to 100 scale where 0 is no effect and 100 is complete control
[25] = Preemergence, 500 g ai/ha, 0 to 100 scale (0 no effect, 100 complete control)

## Fc1ccc(-n2nc(Cc3ccnc(C(F)(F)F)c3)c(OCC(F)(F)F)n2)cc1 [Compound 142]
[1]; [11]
  Plant response rating, Pigweed: 98
[1]; [12]
  Plant response rating, Pigweed: 98
[1]; [13]
  Plant response rating, Pigweed: 98
[1]; [14]
  Plant response rating, Pigweed: 98
[1]; [15]
  Plant response rating, Pigweed: 98
[1]; [16]
  Plant response rating, Pigweed: 98
[1]; [17]
  Plant response rating, Pigweed: 100
[1]; [18]
  Plant response rating, Pigweed: 100
[2]; [19]
  Foxtail, Giant plant response rating: 100
[2]; [20]
  Foxtail, Giant plant response rating: 100
[2]; [21]
  Plant response rating, Foxtail, Giant: 100
[2]; [22]
  Plant response rating, Foxtail, Giant: 100
[3]; [23]
  Plant response rating, Velvetleaf: 100
[3]; Postemergence, 500 g ai/ha
  Velvetleaf plant response rating: 100
[3]; [24]
  Plant response rating, Velvetleaf: 60
[3]; [25]
  Plant response rating, Velvetleaf: 90
[4]; [11]
  Plant response rating, Blackgrass: 55
[4]; [12]
  Plant response rating, Blackgrass: 60
[4]; [13]
  Plant response rating, Blackgrass: 80
[4]; [14]
  Plant response rating, Blackgrass: 90
[4]; [15]
  Plant response rating, Blackgrass: 90
[4]; [16]
  Plant response rating, Blackgrass: 90
[4]; [17]
  Plant response rating, Blackgrass: 90
[4]; [18]
  Plant response rating, Blackgrass: 90
[5]; [11]
  Plant response rating, Crabgrass, Large: 65
[5]; [12]
  Plant response rating, Crabgrass, Large: 80
[5]; [13]
  Plant response rating, Crabgrass, Large: 95
[5]; [14]
  Plant response rating, Crabgrass, Large: 95
[5]; [15]
  Plant response rating, Crabgrass, Large: 100
[5]; [16]
  Plant response rating, Crabgrass, Large: 100
[5]; [17]
  Plant response rating, Crabgrass, Large: 100
[5]; [18]
  Plant response rating, Crabgrass, Large: 100
[6]; [11]
  Plant response rating, Lambsquarters: 80
[6]; [12]
  Plant response rating, Lambsquarters: 98
[6]; [13]
  Plant response rating, Lambsquarters: 98
[6]; [14]
  Plant response rating, Lambsquarters: 98
[6]; [15]
  Plant response rating, Lambsquarters: 80
[6]; [16]
  Plant response rating, Lambsquarters: 90
[6]; [17]
  Plant response rating, Lambsquarters: 95
[6]; [18]
  Plant response rating, Lambsquarters: 98
[7]; [19]
  Barnyardgrass plant response rating: 100
[7]; [20]
  Barnyardgrass plant response rating: 100
[7]; [21]
  Plant response rating, Barnyardgrass: 100
[7]; [22]
  Plant response rating, Barnyardgrass: 100
[8]; [23]
  Plant response rating, Wheat: 80
[8]; Postemergence, 500 g ai/ha
  Wheat plant response rating: 80
[8]; [24]
  Plant response rating, Wheat: 70
[8]; [25]
  Plant response rating, Wheat: 80
[9]; [11]
  Plant response rating, Ryegrass, Italian: 10
[9]; [12]
  Plant response rating, Ryegrass, Italian: 40
[9]; [13]
  Plant response rating, Ryegrass, Italian: 50
[9]; [14]
  Plant response rating, Ryegrass, Italian: 50
[9]; [15]
  Plant response rating, Ryegrass, Italian: 30
[9]; [16]
  Plant response rating, Ryegrass, Italian: 90
[9]; [17]
  Plant response rating, Ryegrass, Italian: 90
[9]; [18]
  Plant response rating, Ryegrass, Italian: 90
Wild oat (Avena fatua); [11]
  Plant response rating, Oat, Wild: 35
Wild oat (Avena fatua); [12]
  Plant response rating, Oat, Wild: 45
Wild oat (Avena fatua); [13]
  Plant response rating, Oat, Wild: 70
Wild oat (Avena fatua); [14]
  Plant response rating, Oat, Wild: 70
Wild oat (Avena fatua); [15]
  Plant response rating, Oat, Wild: 85
Wild oat (Avena fatua); [16]
  Plant response rating, Oat, Wild: 85
Wild oat (Avena fatua); [17]
  Plant response rating, Oat, Wild: 85
Wild oat (Avena fatua); [18]
  Plant response rating, Oat, Wild: 90
Kochia (Kochia scoparia); [11]
  Plant response rating, Kochia: 80
Kochia (Kochia scoparia); [12]
  Plant response rating, Kochia: 90
Kochia (Kochia scoparia); [13]
  Plant response rating, Kochia: 95
Kochia (Kochia scoparia); [14]
  Plant response rating, Kochia: 95
Kochia (Kochia scoparia); [15]
  Plant response rating, Kochia: 55
Kochia (Kochia scoparia); [16]
  Plant response rating, Kochia: 80
Kochia (Kochia scoparia); [17]
  Plant response rating, Kochia: 98
Kochia (Kochia scoparia); [18]
  Plant response rating, Kochia: 100
[10]; [23]
  Plant response rating, Morningglory: 100
[10]; Postemergence, 500 g ai/ha
  Morningglory plant response rating: 100
[10]; [24]
  Plant response rating, Morningglory: 50
[10]; [25]
  Plant response rating, Morningglory: 80

## Cc1nn(-c2ccc(F)c(F)c2)nc1Oc1ccnc(C(F)(F)F)c1 [Compound 145]
[1]; [11]
  Plant response rating, Pigweed: 85
[1]; [12]
  Plant response rating, Pigweed: 98
[1]; [13]
  Plant response rating, Pigweed: 98
[1]; [14]
  Plant response rating, Pigweed: 98
[1]; [15]
  Plant response rating, Pigweed: 90
[1]; [16]
  Plant response rating, Pigweed: 98
[1]; [17]
  Plant response rating, Pigweed: 98
[1]; [18]
  Plant response rating, Pigweed: 100
[2]; [19]
  Foxtail, Giant plant response rating: 90
[2]; [20]
  Foxtail, Giant plant response rating: 100
[2]; [21]
  Plant response rating, Foxtail, Giant: 100
[2]; [22]
  Plant response rating, Foxtail, Giant: 100
[3]; [23]
  Plant response rating, Velvetleaf: 100
[3]; Postemergence, 500 g ai/ha
  Velvetleaf plant response rating: 100
[3]; [24]
  Plant response rating, Velvetleaf: 50
[3]; [25]
  Plant response rating, Velvetleaf: 80
[4]; [11]
  Plant response rating, Blackgrass: 10
[4]; [12]
  Plant response rating, Blackgrass: 60
[4]; [13]
  Plant response rating, Blackgrass: 70
[4]; [14]
  Plant response rating, Blackgrass: 70
[4]; [15]
  Plant response rating, Blackgrass: 85
[4]; [16]
  Plant response rating, Blackgrass: 90
[4]; [17]
  Plant response rating, Blackgrass: 90
[4]; [18]
  Plant response rating, Blackgrass: 90
[5]; [11]
  Plant response rating, Crabgrass, Large: 25
[5]; [12]
  Plant response rating, Crabgrass, Large: 50
[5]; [13]
  Plant response rating, Crabgrass, Large: 85
[5]; [14]
  Plant response rating, Crabgrass, Large: 95
[5]; [15]
  Plant response rating, Crabgrass, Large: 98
[5]; [16]
  Plant response rating, Crabgrass, Large: 100
[5]; [17]
  Plant response rating, Crabgrass, Large: 100
[5]; [18]
  Plant response rating, Crabgrass, Large: 100
[6]; [11]
  Plant response rating, Lambsquarters: 95
[6]; [12]
  Plant response rating, Lambsquarters: 95
[6]; [13]
  Plant response rating, Lambsquarters: 95
[6]; [14]
  Plant response rating, Lambsquarters: 95
[6]; [15]
  Plant response rating, Lambsquarters: 55
[6]; [16]
  Plant response rating, Lambsquarters: 85
[6]; [17]
  Plant response rating, Lambsquarters: 95
[6]; [18]
  Plant response rating, Lambsquarters: 98
[7]; [19]
  Barnyardgrass plant response rating: 80
[7]; [20]
  Barnyardgrass plant response rating: 90
[7]; [21]
  Plant response rating, Barnyardgrass: 100
[7]; [22]
  Plant response rating, Barnyardgrass: 100
[8]; [23]
  Plant response rating, Wheat: 20
[8]; Postemergence, 500 g ai/ha
  Wheat plant response rating: 50
[8]; [24]
  Plant response rating, Wheat: 20
[8]; [25]
  Plant response rating, Wheat: 60
[9]; [11]
  Plant response rating, Ryegrass, Italian: 20
[9]; [12]
  Plant response rating, Ryegrass, Italian: 30
[9]; [13]
  Plant response rating, Ryegrass, Italian: 40
[9]; [14]
  Plant response rating, Ryegrass, Italian: 50
[9]; [15]
  Plant response rating, Ryegrass, Italian: 5
[9]; [16]
  Plant response rating, Ryegrass, Italian: 35
[9]; [17]
  Plant response rating, Ryegrass, Italian: 90
[9]; [18]
  Plant response rating, Ryegrass, Italian: 90
Wild oat (Avena fatua); [11]
  Plant response rating, Oat, Wild: 20
Wild oat (Avena fatua); [12]
  Plant response rating, Oat, Wild: 40
Wild oat (Avena fatua); [13]
  Plant response rating, Oat, Wild: 60
Wild oat (Avena fatua); [14]
  Plant response rating, Oat, Wild: 80
Wild oat (Avena fatua); [15]
  Plant response rating, Oat, Wild: 45
Wild oat (Avena fatua); [16]
  Plant response rating, Oat, Wild: 70
Wild oat (Avena fatua); [17]
  Plant response rating, Oat, Wild: 90
Wild oat (Avena fatua); [18]
  Plant response rating, Oat, Wild: 90
Kochia (Kochia scoparia); [11]
  Plant response rating, Kochia: 85
Kochia (Kochia scoparia); [12]
  Plant response rating, Kochia: 85
Kochia (Kochia scoparia); [13]
  Plant response rating, Kochia: 90
Kochia (Kochia scoparia); [14]
  Plant response rating, Kochia: 95
Kochia (Kochia scoparia); [15]
  Plant response rating, Kochia: 50
Kochia (Kochia scoparia); [16]
  Plant response rating, Kochia: 90
Kochia (Kochia scoparia); [17]
  Plant response rating, Kochia: 98
Kochia (Kochia scoparia); [18]
  Plant response rating, Kochia: 98
[10]; [23]
  Plant response rating, Morningglory: 100
[10]; Postemergence, 500 g ai/ha
  Morningglory plant response rating: 100
[10]; [24]
  Plant response rating, Morningglory: 10
[10]; [25]
  Plant response rating, Morningglory: 60
